Measured values published in ChEMBL document CHEMBL1142878, “Synthesis and cytotoxicity evaluation of substituted pyridazino[4,5-b]phenazine-5,12-diones and tri/tetra-azabenzofluorene-5,6-diones” (Eur J Med Chem, 2007).

What was measured:
Format in all cases: functional, cell-based
HCT-15 = assay: Anticancer activity against human HCT15 cells after 48 hrs by SRB assay; conditions: HCT-15, 48 h
XF498 = assay: Anticancer activity against human XF498 cells after 48 hrs by SRB assay; conditions: XF498, 48 h
SK-MEL-2 = assay: Anticancer activity against human SK-MEL-2 cells after 48 hrs by SRB assay; conditions: SK-MEL-2, 48 h
SK-OV-3 = assay: Anticancer activity against human SKOV3 cells after 48 hrs by SRB assay; conditions: SK-OV-3, 48 h
A549 = assay: Anticancer activity against human A549 cells after 48 hrs by SRB assay; conditions: A549, 48 h

Row | IC50 (HCT-15) | IC50 (SK-MEL-2) | IC50 (SK-OV-3) | IC50 (A549) | Compound | IC50 (XF498)
1 | 195 nM | 116 nM | 79 nM | 174 nM | O=C1c2cnncc2C(=O)c2nc3cc(C(F)(F)F)ccc3nc21 | 116 nM
2 | 1450 nM | 1360 nM | 1650 nM | 1280 nM | Cc1cccc2nc3c(n12)C(=O)C(=O)c1cccnc1-3 | 2570 nM
3 | 93 nM | 29 nM | 39 nM | 109 nM | COc1cccc2nc3c(nc12)C(=O)c1cnncc1C3=O | 65 nM
4 | 978 nM | 286 nM | 183 nM | 745 nM | Cc1cnc2nc3c(n2c1)C(=O)C(=O)c1cccnc1-3 | 382 nM
5 | 10 nM | 12 nM | 19 nM | 13 nM | Cc1ccc2nc3c(nc2c1C)C(=O)c1cnncc1C3=O | 13 nM
6 | 116 nM | 151 nM | 41 nM | 138 nM | O=C1c2cnncc2C(=O)c2nc3cc4c(cc3nc21)OCO4 | 118 nM
7 | 225 nM | 97 nM | 181 nM | 118 nM | COc1cccc2c1C(=O)c1c(O)c3c(c(O)c1C2=O)C[C@@](O)(C(=O)CO)C[C@@H]3O[C@H]1C[C@H](N)[C@H](O)[C@H](C)O1 [DOXORUBICIN] | 112 nM

Second part, the compound before the results:

Row | Compound | IC50 (HCT-15) | IC50 (SK-MEL-2) | IC50 (SK-OV-3) | IC50 (A549) | IC50 (XF498)
8 | O=C1C(=O)c2c(nc3cnccn23)-c2ncccc21 | 123 nM | 114 nM | 18 nM | 98 nM | 92 nM
9 | O=C1C(=O)c2c(nc3c(C(=O)O)cccn23)-c2ncccc21 | 122 nM | 125 nM | 56 nM | 117 nM | 95 nM
10 | CCc1cccc2nc3c(nc12)C(=O)c1cnncc1C3=O | 12 nM | 19 nM | 34 nM | 10 nM | 13 nM
11 | O=C1C(=O)c2c(nc3ncccn23)-c2ncccc21 | 301 nM | 139 nM | 27 nM | 160 nM | 137 nM
12 | O=C1c2cnncc2C(=O)c2nc3cc(OC(F)(F)F)ccc3nc21 | 74 nM | 85 nM | 63 nM |  | 98 nM
13 | CN(C)c1ccc2nc3c(nc2c1)C(=O)c1cnncc1C3=O | 24 nM | 88 nM | 31 nM | 51 nM | 70 nM
14 | COc1cc(OC)c2nc3c(nc2c1)C(=O)c1cnncc1C3=O | 26 nM | 38 nM | 70 nM | 44 nM | 33 nM
15 | CCOc1cccc2nc3c(nc12)C(=O)c1cnncc1C3=O | 30 nM | 15 nM | 32 nM | 53 nM | 29 nM
16 | Cc1cccn2c3c(nc12)-c1ncccc1C(=O)C3=O | 123 nM | 122 nM | 51 nM | 112 nM | 86 nM
17 | Cc1cccc2nc3c(nc12)C(=O)c1cnncc1C3=O | 18 nM | 34 nM | 70 nM | 29 nM | 21 nM
18 | O=C1C(=O)c2c(nc3ccc(Cl)cn23)-c2ncccc21 | 134 nM | 141 nM | 46 nM | 126 nM | 124 nM
